For orientation: inhibition means the percentage by which the read-out fell short of the control.

The test system of test [1] is TGF-β1. The test is described as follows: mRNA for TGF-β1 in macrophages, Northern blot. Format: cell-based, Mouse. The settings on record: combined treatment of LPS with M6P or DCA. How it is done: (§1) The cells were washed with PBS, followed by addition of the extraction buffer provided with the kit (RNeasy RNA extraction kit). The lysed cells were scraped from the dish and collected in microtubes. Samples were either frozen at -70 °C before analysis or directly assessed following manufacturer protocol. Absorbance at 260 nm and 280 nm was measured and the integrity of RNA was evaluated by denaturing formaldehyde agarose gels stained with ethidium bromide.
Northern blot analysis was carried out as described previously (27). Briefly, total RNA samples (5 µg) were diluted in formaldehyde-MOPS buffer and subjected to electrophoresis in a denaturing 1.2 % Sea Kem GTG agarose gel along with the RNA size markers. RNA was transferred to a nitrocellulose membrane by capillary transfer. The blots were prehybridized for 3 h at 42° C in a solution containing 10% dextran sulfate, 2 x Denhardt's solution, 50% formamide, 5 x SSPE (0.75 M Sodium chloride, 0.05 M sodium phosphate, 0.005 M ethylenediaminetetraacetic acid)/ 0.1% SDS, and 250 µg/ml of sheared salmon testis DNA. Hybridization solution was essentially the same except that ^32P dCTP-labeled DNA probe and 150 µg/ml of salmon testis DNA were included. The hybridization was carried out for 16 h at 42° C. […]

The subject of another test is TGF-β1 activation. The test is described as follows: Macrophage activation assay (LPS-treated IC-21 macrophages plus fetal fibroblast conditioned media, TGF-β1 ELISA). It counts as cell-based, Mouse. The following applies: for inhibition at 100 µM / inhibition at 50 µM: read-out: Inhibition of TGF-β1 Activation, % control (STD). How it is done: Cultured macrophages were lifted from the dish with 3 ml of PBS. The PBS was balanced with 15 ml of RPMI-1640 containing 10% FBS. The cells were counted and then seeded in 100 mm plates at 1x10^6 cells/dish. When the cultured macrophages reached approximately 70% confluency (2-3 days) they were washed with PBS and RPMI-1640 medium containing 5% FBS and 10 ng/ml LPS was applied (Figure 1). After 24 h of activation with LPS the cells were washed gently with PBS. At this point conditioned medium from confluent fetal dermal fibroblasts was collected and 5 ml was distributed into each dish containing macrophages. The cells were incubated for an additional 24 h, the media were collected, spun down at 600 x g for 10 min and stored at 4° C before TGF-β1 evaluation by ELISA. Each condition was done in duplicate. The cells, washed with PBS, were harvested for total RNA extraction.
Fetal dermal fibroblasts were seeded in 100 mm dishes at 1x10^6 cell/dish. The cells were grown to confluency (2-3 days). The cultures were washed with PBS and fresh medium, either DMEM supplemented with 10% FBS or AIM-V medium (a serum free medium) for serum-free conditions, was applied for 24 h (Figure 1). The medium was collected and combined in order to obtain a homogenous pool of latent TGF-β1. The collection of the medium was done just prior to application in the macrophage assay.
Each measurement was performed in duplicates.

For a further test, the system named is TGase II. The test is described as follows: mRNA for TGase II in macrophages, RT-PCR with densitometry. It counts as cell-based. The following applies: Mus musculus, Macrophage; macrophages treated with 1 µM hydrocortisone; densitometric analysis of RT-PCR products. How it is done: as §1
(§2) The procedure used to transcribe the total RNA was described in detail previously (28). […]
(§3) A portion of the first strand cDNA reaction was used in PCR, which was carried out in 25 µl containing 16 mM Tris-HCl, pH 8.3, 50 mM KCl, 1.5 mM MgCl2, 0.01 % gelatin, 200 µM of each dNTPs, 1 µM each sense and antisense oligonucleotides and 2.5 units of AmpliTaq DNA polymerase. […] Sizes were determined using Q X 174 DNA/Hae III markers. […] Densitometry was used for quantitative analysis of the ethidium bromide stained gels.
In an attempt to identify the mechanism of this inhibition, the level of mRNA was evaluated for TGase II in macrophages treated with 1 µM hydrocortisone.

For test [2], the system named is TGF-β1. The experiment in a line: Expression of TGF-β1 mRNA in neonatal fibroblasts, semiquantitative RT-PCR. It counts as cell-based, human. As for the experimental part:
(§4) Human neonatal fibroblasts were seeded in 100 mm dishes at 1 x 10^6 cells/dish. […] In addition, cells were treated with two concentrations of Mannose 1-Phosphate (M1P) (100 and 200 µM) for 24 and 48 h. […] Each treatment was run in duplicates and repetitive analyses were performed.
as §1, §2
A portion of the first strand cDNA reaction was used in PCR, which was carried out in 25 µl containing 16 mM Tris-HCl, pH 8.3, 50 mM KCl, 1.5 mM MgCl2, 0.01 % gelatin, 200 µM of each dNTPs, 1 µM each sense and antisense oligonucleotides and 2.5 units of AmpliTaq DNA polymerase. […] Densitometry was used for quantitative analysis of the ethidium bromide stained gels.

The subject of another test is M6P/IGF-II receptor. The experiment in a line: Expression of M6P/IGF-II receptor mRNA in neonatal fibroblasts, semiquantitative RT-PCR. It counts as cell-based, human. As for the experimental part:
as §4, §1
The procedure used to transcribe the total RNA was described in detail previously (28). Briefly, the reaction was carried out in a total volume of 25 µl containing 1x reverse transcriptase buffer (50 mM Tris-HCl, pH 8.3, 75 mM KCl, 3 mM MgCl2), 10 mM DTT (Dithiothreitol), 2.5 mM each of dNTPs (Deoxynucleotides), 100 µg/ml of acetylated BSA, 4 units of rRNasin (ribonuclease inhibitor), 200 units of SuperScript ™ RNase H^-Reverse Transcriptase, 0.1 µg of oligo (dT)12-18 and 1 µg of total RNA. Incubation was carried out for 1 h at 42 °C and was terminated by the addition of an equal volume of cold water.
A portion of the first strand cDNA reaction was used in PCR, which was carried out in 25 µl containing 16 mM Tris-HCl, pH 8.3, 50 mM KCl, 1.5 mM MgCl2, 0.01 % gelatin, 200 µM of each dNTPs, 1 µM each sense and antisense oligonucleotides and 2.5 units of AmpliTaq DNA polymerase. Amplification was carried out for 35 cycles. Each cycle consisted of denaturation 1 min at 95°C; annealing at 55°C (optimal for the pair of oligonucleotides used) for 2 min; and elongation at 72°C, 3 min. For the final cycle elongation was 7 min. Reaction products were separated by 2% agarose gel electrophoresis and were visualized by ethidium bromide staining. […] Restriction digests were performed in order to confirm PCR product specificity. Densitometry was used for quantitative analysis of the ethidium bromide stained gels.

A further test deals with M6P/IGF-II receptors. The test is described as follows: Levels of M6P/IGF-II receptors within wounds treated with M6P. It counts as in vivo. The settings on record: 3 days post-wounding.
A further test concerns TGF-β receptor type I. The test is described as follows: Expression of TGF-β receptor type I mRNA in neonatal fibroblasts, semiquantitative RT-PCR. It counts as cell-based, human. The settings on record: M6P treatment, during the time course (24 and 48 h). As for the experimental part:
as §4, §1, §2, §3

Structures are written as SMILES. Read-outs that look alike come from different tables or passages of the source.

Consider `CN(C)c1cccc2c(S(=O)(=O)NCCCCCN)cccc12` [DCA, monodansylcadaverine], for which the “levels of mRNA for TGF-β1” value in the test with TGF-β1 [1] is recorded as “remained the same”. Also, the “Inhibition of TGF-β1 Activation, % control (STD)” value (from here on “Inhibition … % control (STD)”) with TGF-β1 activation (100 µM, listed as Damylcadaverine) is listed as 18.3 (1.6) %. Moreover, the “Total TGF-β1 (STD)” value in the test with TGF-β1 activation (LPS+CM with serum, 100 µM) is on record as 2302 (219.3) pg/ml. Further, the inhibition at 100 µM with TGF-β1 activation (Mus musculus, 100 µM) turned out to be 18.3%.
For the molecule `C[C@]12CCC(=O)C=C1CC[C@@H]1[C@@H]2[C@@H](O)C[C@@]2(C)[C@H]1CC[C@]2(O)C(=O)CO` [Hydrocortisone, hydrocortisone], the inhibition at 1 µM with TGF-β1 activation (Mus musculus, read-out: Inhibition of TGF-β1, % Control (STD)) came out at 64%. The TGase II mRNA level, % of control at 1 µM in the test on TGase II came to 37.5%.
As for `O=P(O)(O)O[C@H]1O[C@H](CO)[C@@H](O)[C@H](O)[C@@H]1O` [M1P, alpha-D(+) mannose 1-phosphate], the “TGF-β1 mRNA levels” value in the test with TGF-β1 [2] (100 and 200 µM, 24 and 48 h) is on record as “no effects”. Also, the “M6P/IGF-II receptor mRNA levels” value in the test on M6P/IGF-II receptor (100 and 200 µM, 24 and 48 h) is “no effects”. In the test with TGF-β1 activation (Mus musculus), the inhibition at 100 µM came to 85.9%.
In the case of `O=P(O)(O)OC[C@H]1OC(O)[C@@H](O)[C@@H](O)[C@@H]1O` (stereo partly drawn) [M6P, D-mannose 6-phosphate], in the test on M6P/IGF-II receptors, the “levels of the M6P/IGF-II receptors within the wounds” value is “downregulated”. Also, in the test on TGF-β1 [1], the “levels of mRNA for TGF-β1” value is on record as “remained the same”. In the test with TGF-β1 [2] (M6P 100 µM, 48h), the “TGF-β1 48 h” value is recorded as 57.5 (15.9). Moreover, the “level of TGF-β receptor type I mRNA” value in the test on TGF-β receptor type I is “unchanged”. Also, the “M6P/IGF II Receptor 24h” value in the test with M6P/IGF-II receptor (M6P 1 µM) is 98.4 (20.6); with M6P/IGF-II receptor (M6P 10 µM) it was 86.1 (3.2); in the test on M6P/IGF-II receptor (M6P 50 µM), 74 (36.6); with M6P/IGF-II receptor (M6P 100 µM), 85.4 (25); in the test with M6P/IGF-II receptor (M6P 200 µM) it was 57.5 (5.2). Also, the “M6P/IGF II Receptor 48h” value with M6P/IGF-II receptor (M6P 1 µM) is 112.8 (21.4); with M6P/IGF-II receptor (M6P 10 µM) it was 108 (7.1); in the test on M6P/IGF-II receptor (M6P 50 µM), 59.3 (1.4); in the test with M6P/IGF-II receptor (M6P 100 µM) it was 42.2 (3.2); in the test on M6P/IGF-II receptor (M6P 200 µM), 39.6 (1.3). The figures for the “Inhibition … % control (STD)” value with TGF-β1 activation (50 µM) and in the test with TGF-β1 activation (100 µM) were 69.6 (1.7) % and 32.9 (11.5) %, respectively. Further, the “Total TGF-β1 (STD)” value was 1649.8 (71.7) pg/ml in the test with TGF-β1 activation (LPS + CM serum-free, 100 µM) and 2472.6 (374.5) pg/ml in the test with TGF-β1 activation (LPS+CM with serum, 100 µM). In the test with TGF-β1 activation (Mus musculus, 50 µM), the inhibition at 50 µM came out at 69.6%. The inhibition at 100 µM in the test on TGF-β1 activation (Mus musculus, 100 µM) was 32.9%.
Consider `Cl.Cl.NCCCCN` [Putrescine, putrescine-dihydrochloride], for which the results for the “Inhibition … % control (STD)” value with TGF-β1 activation (50 µM) and in the test on TGF-β1 activation (100 µM) were 33.4 (28.8) % and 80.6 (15.5) %, respectively. Also, the inhibition at 50 µM in the test on TGF-β1 activation (Mus musculus, 50 µM) is 33.4%. The inhibition at 100 µM in the test with TGF-β1 activation (Mus musculus, 100 µM) was determined as 80.6 ± 15.5%.

These data come from patent EP0956036B1, “ANTI-FIBROTIC AGENT ASSAY” (ETHICON, INC., priority 1996, dated 1998).
